Results on one compound are retold here after patent US20090062255A1, “TUMOR-TARGETING EVALUATION METHODOLOGY AND COMPOUNDS RELATED THERETO” (THALLION PHARMACEUTICALS INC., priority 2007, published 2009).

Assay [1] has as its system MES-SA/DX5 (doxorubicin-resistant P-glycoprotein over-expressing variant). Description: Growth inhibitory MTT assay, MES-SA/DX5. Type of assay: cell-based, human. Particulars: 72 hours, treated over control. The method, then:
(§1) Growth inhibitory activity of ECO-4601 (Compound 1) and other dibenzodiazepinone analogs was evaluated on a panel of 4 human tumor cell lines: the human uterine sarcoma MES-SA and its doxorubicin-resistant P-glycoprotein over-expressing variant, MES-SA/DX5 as well as non-aggressive and highly aggressive human breast cell lines, MCF-7 and MDA-MB-231, respectively. These four cell lines were obtained from the American Type Culture Collection (Manassas, Va.) and cultured in RPMI plus 10% fetal bovine serum (FBS) and maintained at 37° C. with 5% CO2.
(§2) Exponentially growing cells (5,000 cells per well time; cell number determined with a hemocytometer) were seeded in 96-well flat-bottom plates and allowed to grow overnight. Cells were then incubated for 72 hours with three different concentrations of ECO-4601 or analogs: 30,10, and 3 μM. The in vitro growth inhibitory activity was determined by a commercial MTT assay. All measurements were done in quadruplicate and each experiment was performed 2-3 times. The lower the value, the more cytotoxic is the compound.

The next assay concerns brain tumor cell lines. Nature of the assay: MTT cytotoxicity, panel of brain tumor cell lines (summary). Format: cell-based. Particulars: 96 hours; read-out: IC50 values against brain tumor cell lines, range. The method, then: (§3) The cytotoxic activity of Compound 1 was further evaluated using a panel of brain tumor cell lines. This study was performed in collaboration with INSERM (Grenoble, France). Tumor cells (5,000 to 10,000 cells per well depending on their doubling time) were plated in 96-well flat-bottom plates and incubated for 24 hours before treatment. Tumor cells were then incubated for 96 hours with seven different concentrations of Compound 1: […], 0.01, and 0.001 μM. The in vitro cytotoxic activity was determined by a standard MTT assay.

For assay [2], the system named is human breast cell line MDA-MB-231. Description: Growth inhibitory MTT assay, MDA-MB-231. Type of assay: cell-based. Particulars: 72 hours, treated over control. As to the method: as §1, §2
In another assay the test system is Raf-1. Description: Raf-1 protein levels in MiaPaCa-2 tumors (Western blot). Format: in vivo, mice. Particulars: 20 mg/kg SC daily for 5 days. The method, then:
In this model, it was verified if there was an association between antitumor activity and inhibition of the Ras-MAPK pathway. In parallel to the antitumor study described above, two additional groups of 5 mice were treated SC with vehicle or 20 mg/kg ECO-4601, administered daily for 5 days. Animals from these two groups were sacrificed two hours on day 5 of treatment. As shown by quantification of Western blot analysis (FIG. 13), Raf-1 levels were reduced in MiaPaCa-2 tumors obtained from animals treated with ECO-4601 compared with the vehicle-treated animals.

Assay [3] has as its system GHA oligodendroglioma cell line. Description: MTT cytotoxicity, GHA cell line. Type of assay: cell-based. Particulars: 96 h, Human. As to the method: as §3
In a further assay the target is T1, human MAPK1 (ERK1) (Homo sapiens, UniProt P27361).
T1 construct: purchased Upstate (Kinase Profiler Service; Dundee, UK)
Description: Upstate Kinase Profiler, MAPK1 (ERK1). Type of assay: biochemical. As to the method:
(§4) Unlike current Ras signalling pathway inhibitors, ECO-4601 is not a direct kinase inhibitor. This was documented by evaluating the effect of ECO-4601 on human EGFR, c-RAF, MEK1, MAPK1 (ERK1) and MAPK2 (ERK2) kinase-activity (Upstate Kinase Profiler™ Service; Dundee, UK). ECO-4601 was tested at 0.5 μM and 5 μM in a final volume of 25 μL according to standard protocols developed by Upstate Ltd. Briefly, purified recombinant human enzymes were incubated with 25 mM Tris pH 7.5 containing EGTA, a specific substrate and γ-^32P-ATP. The reaction was initiated with MgATP mix and incubated for 40 minutes at RT. The reaction was stopped by the addition of 5 μL of a 3% phosphoric acid solution; aliquots were spotted on filters and counted. Detailed procedures are available on the Millipore Upstate website.

The test system of assay [4] is GHD astrocytoma cell line. Nature of the assay: MTT cytotoxicity, GHD cell line. Type of assay: cell-based. Particulars: 96 h, Human. The method, then:
as §3

Assay [5] relates to Phospho-ERK (Ras-MAPK signaling pathway). Description: ERK phosphorylation ELISA assay (FACE) in MCF-7 cells. Format: cell-based, human. Particulars: 6 hours, EGF 100 ng/mL for 5 min. The method, then:
Human breast tumor MCF-7 cells were plated in 96-well culture plates (10,000 cells per well) in RPMI containing 10% FBS. After an overnight incubation, the medium is changed to low serum conditions (RPMI containing 0.1% FBS) for 18 h. Cells were then treated with ECO-4601 or selected analogs for 6 hours and then stimulated by the addition of EGF (100 ng/mL for 5 min) to induce the MAPK pathway. UO126 is a commercial inhibitor (Promega, Madison, Wis.) of mitogen-activated protein kinase kinase (MEK1/ERK). Following stimulation, cells were rapidly fixed, which preserved activation-specific protein modifications. Each well was then incubated with an antibody specific for Phospho-ERK or total ERK. After an one-hour incubation and several washes, cells were incubated with a secondary HRP-conjugated antibody followed by a developing solution that provided a colorimetric readout that is quantitative and reproducible. The Fast Activated Cell-based ELISA (FACE™) is commercially available (Active Motif, Carlsbad, Calif.).

In another assay the target is T2, human MAPK2 (ERK2) (Homo sapiens, UniProt P28482).
T2 construct: purchased Upstate (Kinase Profiler Service; Dundee, UK)
Nature of the assay: Upstate Kinase Profiler, MAPK2 (ERK2). Type of assay: biochemical. The method, then:
as §4

T1 sequence (P27361 whole entry): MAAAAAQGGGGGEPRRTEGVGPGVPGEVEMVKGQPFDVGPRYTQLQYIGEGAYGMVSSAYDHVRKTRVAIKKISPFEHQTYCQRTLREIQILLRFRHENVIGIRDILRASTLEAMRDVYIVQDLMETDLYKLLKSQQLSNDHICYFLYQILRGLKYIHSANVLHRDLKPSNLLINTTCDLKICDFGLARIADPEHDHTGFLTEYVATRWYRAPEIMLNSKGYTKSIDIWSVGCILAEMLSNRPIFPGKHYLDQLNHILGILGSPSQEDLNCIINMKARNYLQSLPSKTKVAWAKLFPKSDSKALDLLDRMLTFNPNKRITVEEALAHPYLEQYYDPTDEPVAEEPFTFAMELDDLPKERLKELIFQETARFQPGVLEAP
T2 sequence (P28482 whole entry): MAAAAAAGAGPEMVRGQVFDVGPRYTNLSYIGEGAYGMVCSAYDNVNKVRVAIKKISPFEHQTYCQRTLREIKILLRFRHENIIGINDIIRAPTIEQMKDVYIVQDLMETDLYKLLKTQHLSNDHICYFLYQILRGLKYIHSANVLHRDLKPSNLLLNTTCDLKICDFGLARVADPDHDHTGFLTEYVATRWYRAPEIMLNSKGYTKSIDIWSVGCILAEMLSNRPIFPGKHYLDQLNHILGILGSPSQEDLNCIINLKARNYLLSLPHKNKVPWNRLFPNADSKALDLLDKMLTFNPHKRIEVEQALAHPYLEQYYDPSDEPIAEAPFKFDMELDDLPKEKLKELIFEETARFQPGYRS

Regarding `CC(C)=CCC/C(C)=C/CC/C(C)=C/CN1C(=O)c2cccc(O)c2Nc2c(O)cc(O)cc21` [Compound 1, 10-farnesyl-4,6,8-trihydroxy-5,10-dihydrodibenzo[b,e][1,4]diazepin-11-one], the “% T/C at 10 μM” value in assay [1] was determined as 100%; in assay [2] it was 38%. For the same compound, the IC50 with brain tumor cell lines is 1.6 to 8.9 µM; in assay [3] it was 1.6 ± 0.7 µM; in [4], 6.5 ± 2.9 µM. The “Raf-1 levels in MiaPaCa-2 tumors versus vehicle-treated animals” value with Raf-1 is given as “reduced”. On human MAPK1 (ERK1) (0.5 μM and 5 μM), the “direct inhibition of ERK1 kinase activity (in words)” value is listed as “does not directly inhibit”. The activity at 0.5 µM is 97 ± 2% at human MAPK1 (ERK1) (MAPK1 (ERK1), 0.5 μM, % of enzyme activity over positive control, read-out: Kinase Activity (%) ± SD) and 116 ± 1% at human MAPK2 (ERK2) (MAPK2 (ERK2), 0.5 μM, % of enzyme activity over positive control, read-out: Kinase Activity (%) ± SD). Further, the activity at 5 µM on human MAPK1 (ERK1) (MAPK1 (ERK1), 5 μM, % of enzyme activity over positive control, read-out: Kinase Activity (%) ± SD) is 73 ± 3%; on human MAPK2 (ERK2) (MAPK2 (ERK2), 5 μM, % of enzyme activity over positive control, read-out: Kinase Activity (%) ± SD), 110 ± 1%. Besides, the “inhibition of phospho-ERK in the FACE ELISA assay” value in assay [5] was “inhibit the Ras-MAPK signaling pathway”. In addition, on human MAPK2 (ERK2) (0.5 μM and 5 μM), the “direct inhibition of ERK2 kinase activity (in words)” value was “does not directly inhibit”.
